“And” between values parts separate entries of the source, which are not always exact repeats. Equal entries are not always repeated. Inconclusive results and toxic doses are left out.
System: BDF1 mice, L1210 leukemia sc, survival T/C
Experiment: NCI In Vivo Anticancer Drug Screen. Data for tumor model L1210 Leukemia (subcutaneous) in B6D2F1 (BDF1) mice
Conditions: endpoint: median survival time, higher = longer survival
How it was run: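 Antitumor activity is assessed in mice with transplanted tumors by comparing the treated group (T) with the vehicle control group (C).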

[1] = dose: 39.0 mg/kg/injection, schedule: Q01DX Z (sc), vehicle: saline

In the case of `C[C@H](N)C(=O)N[C@@H]1[C@H]2C(=C(O)C[C@@H](O)[C@@H]2O)C(=O)O[C@@H]1C`, the T/C [1] is reported as 109 % of control, the T/C (dose: 65.0 mg/kg/injection, schedule: Q01DX Z (sc), vehicle: saline) is reported as 109 % of control and the T/C (dose: 108.0 mg/kg/injection, schedule: Q01DX Z (sc), vehicle: saline) is reported as 100 % of control. The T/C (dose: 180.0 mg/kg/injection, schedule: Q01DX Z (sc), vehicle: saline) was 100 % of control and 104 % of control, the T/C (dose: 180.0 mg/kg/injection, schedule: Q#A X Z (sc), vehicle: saline) was 103 % of control and the T/C (dose: 300.0 mg/kg/injection, schedule: Q01DX Z (sc), vehicle: saline) was 100 % of control and 109 % of control. For the same compound, the T/C (dose: 300.0 mg/kg/injection, schedule: Q#A X Z (sc), vehicle: saline) was 107 % of control, the T/C (dose: 389.0 mg/kg/injection, schedule: Q01DX Z (sc), vehicle: saline) was 112 % of control and the T/C (dose: 500.0 mg/kg/injection, schedule: Q01DX Z (sc), vehicle: saline) was 107 % of control and 118 % of control. For the same compound, the T/C (dose: 500.0 mg/kg/injection, schedule: Q#A X Z (sc), vehicle: saline) was 103 % of control, the T/C (dose: 833.0 mg/kg/injection, schedule: Q01DX Z (sc), vehicle: saline) was 163 % of control and the T/C (dose: 1388.0 mg/kg/injection, schedule: Q#A X Z (sc), vehicle: saline) was 115 % of control. For the same compound, the T/C (dose: 1800.0 mg/kg/injection, schedule: Q01DX Z (sc), vehicle: saline) was 150 % of control.

For `Nc1nncs1`, the T/C (dose: 50.0 mg/kg/injection, schedule: Q04DX004 (sc), vehicle: water) was 111 % of control, the T/C (dose: 100.0 mg/kg/injection, schedule: Q04DX004 (sc), vehicle: water) was 101 % of control and the T/C (dose: 200.0 mg/kg/injection, schedule: Q04DX004 (sc), vehicle: water) was 106 % of control. The T/C (dose: 200.0 mg/kg/injection, schedule: Q08DX003 (sc), vehicle: water) was 101 % of control, the T/C (dose: 400.0 mg/kg/injection, schedule: Q04DX004 (sc), vehicle: water) was 111 % of control and the T/C (dose: 400.0 mg/kg/injection, schedule: Q08DX003 (sc), vehicle: water) was 108 % of control. For the same compound, the T/C (dose: 800.0 mg/kg/injection, schedule: Q08DX003 (sc), vehicle: water) was 109 % of control and the T/C (dose: 1600.0 mg/kg/injection, schedule: Q08DX003 (sc), vehicle: water) was 117 % of control.

In the case of `NC(CSC(c1ccccc1)(c1ccccc1)c1ccccc1)C(=O)O` (stereo not drawn), the T/C (dose: 5.0 mg/kg/injection, schedule: Q03HX003 (sc), vehicle: saline) is reported as 114 % of control, the T/C (dose: 8.4 mg/kg/injection, schedule: Q03HX003 (sc), vehicle: saline) is reported as 117 % of control and the T/C (dose: 23.0 mg/kg/injection, schedule: Q03HX003 (sc), vehicle: saline) is reported as 150 % of control. The T/C (dose: 39.0 mg/kg/injection, schedule: Q03HX003 (sc), vehicle: saline) was 92 % of control, the T/C (dose: 65.0 mg/kg/injection, schedule: Q01DX009 (sc), vehicle: saline) was 150 % of control and the T/C (dose: 108.0 mg/kg/injection, schedule: Q04DX003 (sc), vehicle: saline) was 121 % of control. The T/C (dose: 300.0 mg/kg/injection, schedule: Q02DX005 (sc), vehicle: saline) was 89 % of control, the T/C (dose: 500.0 mg/kg/injection, schedule: Q02DX005 (sc), vehicle: saline) was 92 % of control and the T/C (dose: 833.0 mg/kg/injection, schedule: Q04DX003 (sc), vehicle: saline) was 114 % of control.

In the case of `COc1cccc2c1C(=O)c1c(O)c3c(c(O)c1C2=O)C[C@@](O)(C(=O)CO)C[C@@H]3OC1CC(N)C(O)C(C)O1` (stereo partly drawn), the T/C (dose: 0.39 mg/kg/injection, schedule: Q03HX008 (ip), vehicle: water) is reported as 88 % of control, the T/C (dose: 0.39 mg/kg/injection, schedule: Q03HX008 (sc), vehicle: water) is reported as 100 % of control and the T/C (dose: 0.65 mg/kg/injection, schedule: Q01DX005 (ip), vehicle: water) is reported as 95 % of control. The T/C (dose: 0.65 mg/kg/injection, schedule: Q01DX005 (sc), vehicle: water) was 95 % of control, the T/C (dose: 0.65 mg/kg/injection, schedule: Q03HX008 (ip), vehicle: water) was 100 % of control (2×) and 111 % of control and the T/C (dose: 1.0 mg/kg/injection, schedule: Q04DX003 (ip), vehicle: saline) was 92 % of control. The T/C (dose: 1.08 mg/kg/injection, schedule: Q01DX005 (ip), vehicle: water) was 95 % of control, the T/C (dose: 1.08 mg/kg/injection, schedule: Q01DX005 (sc), vehicle: water) was 100 % of control and the T/C (dose: 1.08 mg/kg/injection, schedule: Q03HX008 (ip), vehicle: water) was 100 % of control and 105 % of control and 111 % of control. The T/C (dose: 1.8 mg/kg/injection, schedule: Q01DX005 (ip), vehicle: water) was 100 % of control, the T/C (dose: 1.8 mg/kg/injection, schedule: Q01DX005 (sc), vehicle: water) was 110 % of control and the T/C (dose: 1.8 mg/kg/injection, schedule: Q03HX008 (ip), vehicle: water) was 111 % of control. The T/C (dose: 1.8 mg/kg/injection, schedule: Q04DX003 (sc), vehicle: water) was 111 % of control, the T/C (dose: 2.0 mg/kg/injection, schedule: Q04DX003 (ip), vehicle: saline) was 94 % of control and the T/C (dose: 3.0 mg/kg/injection, schedule: Q01DX001 (sc), vehicle: water) was 111 % of control. For the same compound, the T/C (dose: 3.0 mg/kg/injection, schedule: Q01DX005 (sc), vehicle: water) was 110 % of control, the T/C (dose: 3.0 mg/kg/injection, schedule: Q04DX003 (sc), vehicle: water) was 116 % of control and the T/C (dose: 4.0 mg/kg/injection, schedule: Q04DX003 (ip), vehicle: saline) was 92 % of control. The T/C (dose: 5.0 mg/kg/injection, schedule: Q01DX001 (iv), vehicle: water) was 111 % of control and 115 % of control, the T/C (dose: 5.0 mg/kg/injection, schedule: Q01DX001 (sc), vehicle: water) was 111 % of control and the T/C (dose: 5.0 mg/kg/injection, schedule: Q04DX003 (sc), vehicle: water) was 122 % of control. The T/C (dose: 8.0 mg/kg/injection, schedule: Q04DX003 (ip), vehicle: saline) was 91 % of control, the T/C (dose: 8.4 mg/kg/injection, schedule: Q01DX001 (iv), vehicle: water) was 122 % of control and the T/C (dose: 14.0 mg/kg/injection, schedule: Q01DX001 (sc), vehicle: water) was 111 % of control. The T/C (dose: 14.0 mg/kg/injection, schedule: Q04DX003 (sc), vehicle: water) was 94 % of control and the T/C (dose: 23.0 mg/kg/injection, schedule: Q01DX001 (iv), vehicle: water) was 67 % of control.

With `COc1cccc2c1C(=O)c1c(O)c3c(c(O)c1C2=O)CC(O)(C(=O)CO)CC3OC1CC(N)C(O)C(C)O1` (stereo not drawn) the T/C (dose: 11.4 mg/kg/injection, schedule: Q04DX003 (ip), vehicle: saline) was 87 % of control, the T/C (dose: 22.8 mg/kg/injection, schedule: Q04DX003 (ip), vehicle: saline) was 89 % of control and the T/C (dose: 45.6 mg/kg/injection, schedule: Q04DX003 (ip), vehicle: saline) was 90 % of control. The T/C (dose: 91.2 mg/kg/injection, schedule: Q04DX003 (ip), vehicle: saline) was 95 % of control and the T/C (dose: 182.4 mg/kg/injection, schedule: Q04DX003 (ip), vehicle: saline) was 103 % of control.

`COCCCN=C(N)c1ccc(NC(=O)c2ccc(C(=O)Nc3ccc(C(N)=NCCCOC)cc3)cc2)cc1` was tested, and the T/C (dose: 8.4 mg/kg/injection, schedule: Q01DX Z (sc), vehicle: saline) was 158 % of control and the T/C [1] was 100 % of control.

Reference: PubChem BioAssay AID250 (DTP/NCI, 2004)
